Experiments:
[1] = biological target: T1, ACE from pig kidney (EC 3.4.15.1) (Sus scrofa, UniProt F1RRW5); format: biochemical; conditions: relative to Captopril
T1 construct: angiotensin-converting-enzyme derived from pig kidney; purchased Sigma; host or cells: pig kidney (tissue-derived enzyme)
T1 sequence (F1RRW5 34-1309): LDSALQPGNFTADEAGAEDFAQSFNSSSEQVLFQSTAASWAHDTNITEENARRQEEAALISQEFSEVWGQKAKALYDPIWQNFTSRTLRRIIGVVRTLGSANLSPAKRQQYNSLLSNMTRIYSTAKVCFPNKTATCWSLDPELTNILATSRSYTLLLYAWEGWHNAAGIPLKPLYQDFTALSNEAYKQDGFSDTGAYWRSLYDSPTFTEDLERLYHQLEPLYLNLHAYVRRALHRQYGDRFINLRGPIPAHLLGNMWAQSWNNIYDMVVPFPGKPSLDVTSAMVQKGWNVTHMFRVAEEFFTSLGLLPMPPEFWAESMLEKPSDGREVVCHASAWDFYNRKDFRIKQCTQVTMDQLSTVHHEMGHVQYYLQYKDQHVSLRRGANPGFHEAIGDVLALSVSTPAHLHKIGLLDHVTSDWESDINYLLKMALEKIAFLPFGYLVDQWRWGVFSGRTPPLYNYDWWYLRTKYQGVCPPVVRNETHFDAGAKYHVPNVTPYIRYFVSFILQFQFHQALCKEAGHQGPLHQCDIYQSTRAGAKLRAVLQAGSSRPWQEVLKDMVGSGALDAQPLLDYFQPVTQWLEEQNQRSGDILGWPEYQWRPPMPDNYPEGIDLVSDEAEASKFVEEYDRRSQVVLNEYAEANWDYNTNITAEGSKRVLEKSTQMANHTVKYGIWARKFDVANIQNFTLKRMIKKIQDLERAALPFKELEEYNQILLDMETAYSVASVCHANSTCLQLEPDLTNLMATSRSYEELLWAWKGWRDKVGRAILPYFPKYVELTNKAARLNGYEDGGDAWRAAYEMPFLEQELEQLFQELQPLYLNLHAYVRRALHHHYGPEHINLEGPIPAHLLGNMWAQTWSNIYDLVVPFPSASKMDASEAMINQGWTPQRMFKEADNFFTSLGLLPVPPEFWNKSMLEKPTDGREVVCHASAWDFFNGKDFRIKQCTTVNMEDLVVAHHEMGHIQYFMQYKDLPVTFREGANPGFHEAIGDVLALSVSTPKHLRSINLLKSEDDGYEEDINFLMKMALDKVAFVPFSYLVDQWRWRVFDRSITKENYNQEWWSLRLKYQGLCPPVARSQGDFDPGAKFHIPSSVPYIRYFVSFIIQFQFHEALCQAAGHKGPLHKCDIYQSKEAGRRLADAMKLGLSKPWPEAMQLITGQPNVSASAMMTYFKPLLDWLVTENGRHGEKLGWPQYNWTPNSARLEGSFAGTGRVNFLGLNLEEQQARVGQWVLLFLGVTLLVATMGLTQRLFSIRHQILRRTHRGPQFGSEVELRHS
Description: These peptides were investigated for their inhibitory effect using an in vitro-ACE-inhibitor-assay with an angiotensin-converting-enzyme derived from pig kidney. Hippuryl-histidyl-leucin was used as a substrate.
The assay was performed in 96 well HTRF-plates (Packard). The concentrations used for each well were: 1 mU ACE from pig kidney (EC 3.4.15.1 (Sigma)) in 30 μl of assay buffer (25 mM HEPES; 0,3 M NaCl, pH 8.2) and 20 μl inhibitor dissolved in assay buffer (0.35-200 μM). The reaction was started by adding 50 μl of 2 mM hippuryl-histidyl-leucin (Sigma) in assay buffer. The reaction was performed at room temperature (22° C.) for 30 minutes and terminated by adding 50 μl 1 M NaOH. Afterwards 50 μl of 0.5% ortho-phtalaldehyd (Sigma) in methanol were added, 5 minutes later followed by 50 μl of 2.5 M HCl-solution to stabilize the developed fluorescence product.
The results were used to calculate the % inhibition. The IC50-values were determined graphically from a curve showing the dose-reaction ratio.
In order to minimize errors due to time-dependent differences, all pipetting steps were performed in a precise time schedule.

normotensive Wister rats = assay: bradykinin-potentiating effect: blood pressure measurement in anaesthetized normotensive rats; format: in vivo, rat
Description: These experiments were conducted with normotensive rats and the short-time decrease of blood pressure induced by bradykinin (and caused by vasodilatation) was measured. […] Furthermore, S545 (also corresponds to proANP48-57) was also tested in vivo at hypertensive rats (FIG. 7).
In the in vivo experiments with normotensive rats the animals were previously anaesthetized and after blood pressure stabilization treated with a constant amount of bradykinin. Subsequently, either Captopril or human BPP were administered, again followed by a constant amount of bradykinin. Afterwards the maximal blood pressure drop was determined and, on the basis of bradykinin as a factor 1, the potentiating factor was determined. In the same way, the systolic and diastolic blood pressure, the percentage middle pressure decrease and the time required to come back to the baseline values were measured (see tables 4a to 4j). A detailed experimental description is given below.
The trials were conducted on female anaesthetized normotensive Wister rats with weight ranging from 210 to 240 g.
The peptide pANP48-57 used for the in vivo assays was synthesized by Biosynthan (Berlin) with a HPLC-determined purity of 98%. […]
The middle pressure was determined from the measured diastolic (pd) and systolic (ps) blood pressure by using the following formula: pm=(ps−pd)×0.42+pd.

CC(C)C[C@H](NC(=O)[C@H](C)N)C(=O)N[C@@H](CO)C(=O)N1CCC[C@H]1C(=O)N[C@@H](CC(C)C)C(=O)N1CCC[C@H]1C(=O)N[C@@H](CCC(=O)O)C(=O)N[C@H](C(=O)N1CCC[C@H]1C(=O)N1CCC[C@H]1C(=O)O)C(C)C [Peptide S545]
dose necessary in the ACE-assay to reach the same effect as with Captopril [1]: 1000 fold | molecular concentration required for the bradykinin-potentiating effect in vivo in comparison to Captopril (normotensive Wister rats; in vivo, relative to Captopril): 10 fold | bradykinin-potentiating effect (short-time decrease of blood pressure induced by bradykinin) (normotensive Wister rats; normotensive rats, anaesthetized, i.v.): concentration dependent bradykinin-potentiating
